The text below walks through data of patent publication US5356904A, “Carbostyril oxytocin receptor antagonists” (Merck & Co., Inc., priority 1992, dated 1994).

The target in one test is T1, uterine OT receptors (Rattus norvegicus, UniProt P70536).
T1 construct: using a crude membrane preparation of uteri; from tissue; host or cells: rat uterus, crude membrane preparation (DES-treated rats)
T1 sequence (P70536 1-388): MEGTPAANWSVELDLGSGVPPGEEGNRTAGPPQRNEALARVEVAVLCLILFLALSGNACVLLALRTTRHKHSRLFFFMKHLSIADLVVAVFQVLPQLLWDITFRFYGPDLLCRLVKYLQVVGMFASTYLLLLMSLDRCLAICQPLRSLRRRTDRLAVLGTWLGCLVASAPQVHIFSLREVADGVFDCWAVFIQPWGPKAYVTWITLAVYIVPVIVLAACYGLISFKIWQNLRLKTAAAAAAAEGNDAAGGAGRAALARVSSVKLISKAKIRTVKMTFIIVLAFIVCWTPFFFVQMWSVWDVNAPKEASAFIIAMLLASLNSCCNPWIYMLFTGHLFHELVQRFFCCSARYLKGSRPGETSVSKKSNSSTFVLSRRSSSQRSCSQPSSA
As to the kind of experiment: [3H]oxytocin (OT) radioligand binding, uterine membranes. Conditions: for inhibition at 10 µM: read-out: % Inhibition rat OT.

The target in the next test is AVP-V2 sites (Rattus norvegicus, UniProt Q00788). As to the kind of experiment: [3H]vasopressin (AVP) radioligand binding, kidney medulla membranes (AVP-V2 sites). Conditions: for inhibition at 3 µM: read-out: % Inhibition rat V2.
AVP-V2 sites, sequence (Q00788 whole entry): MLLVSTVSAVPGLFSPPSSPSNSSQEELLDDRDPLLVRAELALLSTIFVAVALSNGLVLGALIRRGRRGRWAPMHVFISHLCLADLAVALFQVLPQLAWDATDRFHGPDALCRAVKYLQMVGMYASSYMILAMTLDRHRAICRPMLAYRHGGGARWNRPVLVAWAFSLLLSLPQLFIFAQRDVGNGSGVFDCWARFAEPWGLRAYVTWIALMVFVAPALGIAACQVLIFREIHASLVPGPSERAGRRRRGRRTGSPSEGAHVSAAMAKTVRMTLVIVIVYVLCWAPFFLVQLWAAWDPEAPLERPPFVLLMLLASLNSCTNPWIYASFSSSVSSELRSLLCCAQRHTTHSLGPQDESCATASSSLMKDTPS
Another test concerns the target T2, AVP-V1 sites (Rattus norvegicus, UniProt P30560).
T2 construct: crude membrane preparation of male rat liver; from tissue; host or cells: male rat liver, crude membrane preparation
As to the kind of experiment: [3H]vasopressin (AVP) radioligand binding, liver membranes (AVP-V1 sites). Conditions: for inhibition at 3 µM: read-out: % Inhibition rat V1.

The term pIC50 denotes the IC50 on a negative log10 scale, so that one unit is a factor of ten. For orientation: inhibition means the drop in the measured response relative to a control, in per cent.

Molecules are shown by their SMILES. pIC50: −log10 of the molar value. Read-outs that look alike come from different tables or passages of the source.

T2 sequence (P30560 whole entry): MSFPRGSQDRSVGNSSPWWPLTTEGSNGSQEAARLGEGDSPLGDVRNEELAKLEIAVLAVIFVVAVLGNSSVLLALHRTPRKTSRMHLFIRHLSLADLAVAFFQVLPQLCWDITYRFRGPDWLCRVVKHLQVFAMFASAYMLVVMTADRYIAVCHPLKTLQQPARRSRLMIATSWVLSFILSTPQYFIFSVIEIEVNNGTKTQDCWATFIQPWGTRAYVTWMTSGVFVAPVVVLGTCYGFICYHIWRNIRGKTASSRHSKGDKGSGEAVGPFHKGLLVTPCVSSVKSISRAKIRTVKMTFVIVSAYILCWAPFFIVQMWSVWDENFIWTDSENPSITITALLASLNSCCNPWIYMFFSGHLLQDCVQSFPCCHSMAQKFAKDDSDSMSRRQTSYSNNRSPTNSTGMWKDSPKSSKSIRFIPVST

As to `O=C(c1ccc(-c2ccccc2)cc1)N1CCC(N2C(=O)CCc3ccccc32)CC1` [C6H5], the pIC50 at uterine OT receptors was 5.46. In addition, the inhibition at 3 µM on AVP-V2 sites came out at 2%; on AVP-V1 sites, 65%.

For the compound `O=C(c1ccc(C(F)(F)F)cc1)N1CCC(N2C(=O)CCc3ccccc32)CC1` [CF3], the inhibition at 10 µM at uterine OT receptors stood at 69%. Besides, the pIC50 at AVP-V2 sites is 4.22; on AVP-V1 sites, 6.10.

With `O=C(c1cccc2ccccc12)N1CCC(N2C(=O)CCc3ccccc32)CC1` [CO, 1-naphthyl], the inhibition at 10 µM at uterine OT receptors (@ 10 uM) came out at 69%. For the same compound, the inhibition at 3 µM at AVP-V2 sites (@ 3 uM) came out at 5%; at AVP-V1 sites (@ 3 uM), 17%.

On to `O=C(c1ccc2ccccc2c1)N1CCC(N2C(=O)CCc3ccccc32)CC1` [CO, 2-naphthyl], for which the inhibition at 10 µM at uterine OT receptors was found to be 75%. For the same compound, the inhibition at 3 µM was determined as 7% on AVP-V2 sites and 75% on AVP-V1 sites.

Take `O=C(c1ccc2[nH]ccc2c1)N1CCC(N2C(=O)CCc3ccccc32)CC1` [CO, 5-indolyl]: the pIC50 on uterine OT receptors was 5.77; on AVP-V2 sites it was 4.25; on AVP-V1 sites it was 6.62.

For `Nc1ccc(CC(=O)N2CCC(N3C(=O)CCc4ccccc43)CC2)cc1` [CO, p-CH2C6H4NH2], the inhibition at 1 µM on uterine OT receptors (@ 1 uM) was determined as 19%. The inhibition at 3 µM worked out at 1% on AVP-V2 sites (@ 3 uM) and 27% at AVP-V1 sites (@ 3 uM).

For `CC(=O)Nc1ccc(CC(=O)N2CCC(N3C(=O)CCc4ccccc43)CC2)cc1` [CO, p-CH2C6H4NHAc], the pIC50 is 5.64 at uterine OT receptors, under 4.00 on AVP-V2 sites and 6.02 on AVP-V1 sites.

For the compound `COc1ccc(CC(=O)N2CCC(N3C(=O)CCc4ccccc43)CC2)cc1` [CO, p-CH2C6H4OCH3], the pIC50 on uterine OT receptors is 5.62; at AVP-V2 sites, under 4.00; at AVP-V1 sites it was 5.22.

With `O=C(c1ccc(OCCCN2C(=O)c3ccccc3C2=O)cc1)N1CCC(N2C(=O)CCc3ccccc32)CC1` [Example 2], the pIC50 at uterine OT receptors was 5.96.

As for `COc1ccc(C(=O)N2CCC(N3C(=O)CCc4ccccc43)CC2)c(OC)c1` [Example 5], the pIC50 at uterine OT receptors is 6.25; on AVP-V1 sites, 7.41.

With `O=C(c1ccc(OCCCN2C(=O)c3ccccc3C2=O)cc1)N1CCC(N2C(=O)CCc3ccccc32)CC1` [O(CH2)3NPth (drawing 528)], the pIC50 at AVP-V2 sites is at most 4.00.

In the case of `CC1(C)[C@@H]2CC[C@@]1(CS(=O)(=O)N1CCC(N3C(=O)CCc4ccccc43)CC1)C(=O)C2` [SO2, (+)-camphor-10-yl], the values for the pIC50 at uterine OT receptors, on AVP-V2 sites and at AVP-V1 sites were 5.72, 4.14 and 5.10, respectively.

Regarding `COc1ccc(S(=O)(=O)N2CCC(N3C(=O)CCc4ccccc43)CC2)cc1` [SO2, p-C6H4OCH3], the inhibition at 10 µM on uterine OT receptors (@ 10 uM) was found to be 36%. Further, the inhibition at 3 µM at AVP-V2 sites (@ 3 uM) turned out to be 12%; on AVP-V1 sites (@ 3 uM) it was 15%.

With `COc1cccc(C(=O)N2CCC(N3C(=O)CCc4ccccc43)CC2)c1` [m-OCH3], the results for the negative logarithm of the IC50 (pIC50) at uterine OT receptors, at AVP-V2 sites and on AVP-V1 sites were 5.57, under 4.00 and 5.68, respectively.

Consider `Cc1ccc(C(=O)N2CCC(N3C(=O)CCc4ccccc43)CC2)c(C)c1` [o-CH3, p-CH3], for which, at uterine OT receptors (@ 10 uM), the inhibition at 10 µM is 79%. Moreover, the inhibition at 3 µM at AVP-V2 sites (@ 3 uM) is 55%; on AVP-V1 sites (@ 3 uM), 48%.

In the case of `O=C(c1ccc(Cl)cc1Cl)N1CCC(N2C(=O)CCc3ccccc32)CC1` [o-Cl, p-Cl], the inhibition at 10 µM on uterine OT receptors (@ 10 uM) was found to be 7%. In addition, the results for the inhibition at 3 µM at AVP-V2 sites (@ 3 uM) and on AVP-V1 sites (@ 3 uM) were 1% and 34%, respectively.

Compound `O=C(c1ccc([N+](=O)[O-])cc1Cl)N1CCC(N2C(=O)CCc3ccccc32)CC1` [o-Cl, p-NO2] had a pIC50 at uterine OT receptors of 4.82. For the same compound, the inhibition at 3 µM came out at 6% at AVP-V2 sites and 34% on AVP-V1 sites.

With `COc1ccc(C(=O)N2CCC(N3C(=O)CCc4ccccc43)CC2)c(OC)c1` [o-OCH3, p-OCH3 (drawing 527)], on AVP-V2 sites, the negative-log IC50 (pIC50) is 4.55.

`COc1ccccc1C(=O)N1CCC(N2C(=O)CCc3ccccc32)CC1` [o-OCH3]: the negative-log IC50 (pIC50) is 5.96 at uterine OT receptors, 4.18 on AVP-V2 sites and 6.42 at AVP-V1 sites.

As for `CC(C)(C)c1ccc(C(=O)N2CCC(N3C(=O)CCc4ccccc43)CC2)cc1` [tert-C4H9], at uterine OT receptors, the inhibition at 10 µM was determined as 77%. For the same compound, the pIC50 was about 4.15 on AVP-V2 sites and 6.10 at AVP-V1 sites.
